Measurements taken from patent US7153524B2, “Method for improving adsorption of a drug from ethylene oxide derivative” (Astellas Pharma Inc., priority 2002, dated 2006).
Values after ≈ are worked out from the molar mass of the structure shown. Counter-ions that a name gives are not always drawn.

How the values were obtained:
H. pylori [1] = experiment: In vivo anti-H. pylori activity, Mongolian gerbil infection model (Experiment 4); design: species or system Mongolian gerbils; details: for Clearance rate: oral twice a day for three days
Protocol: In vivo anti-H. pylori activity was evaluated with animal experiments using Mongolian gerbil infection models. […] The drug was administered twice a day for three days at an administration volume of 20 mL/kg using an oral stomach tube. The stomach was autopsied and excised and the number of H. pylori in the stomach were measured the day after the final administration. In vivo anti-H. pylori activity was evaluated from clearance, that is, the ratio of the number of cases in which H. pylori was identified and the number of cases in which the number of bacteria after treatment was below the detection limit.

[2] = Solubility of compound A in water and components of mucus layer; format: physicochemical
Protocol: Compound A is a drug that acts directly from the gastric lumen side on the H. pylori that lives in the mucous layers and therefore, the case wherein after dissolution (I), the bulk powder that has been administered transfers (IV) and the case where the bulk powder is dissolved (II) after transferring to the mucous layers (III) will be considered. The effects of Macrogol 6000 on the course of dissolution of compound A were studied. A specific amount of compound A was added to ion-exchanged water, a 0.8% mucin (Sigma) solution, a 6.2% BSA (Sigma) solution, and linoleic acid (Sigma), and various drugs suspensions were obtained by exposure for 20 minutes to ultrasonic waves (Sono Cleaner, Kaijo Corporation). The rest of the procedure was performed as in Example 1 and the following samples were obtained.
Solubility of compound A in water was calculated by filtering the liquid after dispersion using a hydrophilic filter (0.45 μm, Advantec) and submitting the product to assay by high-performance liquid chromatography (HPLC hereafter) (n=2, sample (1); n=3, sample (2)).
Solubility of the drug in mucin was calculated by filtering the liquid after dispersion using a hydrophilic filter (0.8 μm, Advantec) and submitting the product to assay by HPLC (n=3, samples (3) and (4)).
The liquid after dispersion was filtered with a hydrophilic filter (0.45 μm, Advantec), absorbance at 370 nm and 550 nm (corrected for turbidity) was determined under room temperature using an ultraviolet-visible spectrophotometer, and solubility was calculated (n=3, samples (5) and (6)).
The liquid after dispersion was filtered with a hydrophilic filter (0.45 μm, Advantec), absorbance at 366 nm and 550 nm (corrected for turbidity) was determined under room temperature using an ultraviolet-visible spectrophotometer, and solubility was calculated (n=3, samples (7) and (8)).

H. pylori [3] = details: compound used alone; cited from earlier work
H. pylori [4] = experiment: Minimum concentration at which an increase in bacteria is inhibited; format: cell-based
[5] = Adsorption of compound A from aqueous phase onto immobilized oil-gel phase (Experiment 2); format: physicochemical; details: for adsorption amount of chemical compound A: drug charge 600 μg, 2 h
Protocol: (§1) In order to study adsorption of a drug from an aqueous phase onto an oil phase (model of mucous layers), an in vitro test system wherein mixing of the oil components in the aqueous phase is prevented was constructed by immobilizing the oil phase with a gelling agent and separating it from the aqueous phase of a drug suspended in a mucin solution. Immobilization of the oil phase was performed by adding 120 mg of an oil gelling agent, which is a natural oil and fat fatty acid extracted from castor oil (Johnson Co., Ltd.), to 2 mL of medium chain fatty acid triglyceride (Nihon Oils and Fats Co., Ltd.; brand name: Panaset) and preparing an oil gel in a test tube (inner diameter of 1 cm, Eiken tube No. 5). A solution of 600 μg of compound A suspended in 2 mL of an aqueous 0.8% mucin solution was prepared and brought into contact with the oil phase (n=6). When Macrogol 6000 was added to the aqueous phase, the concentration was brought to 3.5% (n=3 to 6). After setting the solution aside for two hours, the aqueous phase was recovered and compound A was assayed by HPLC. Furthermore, the surface of the oil phase was washed with methanol and compound A in the recovered solution was assayed by HPLC.

[6] = Rate of adsorption of compound A on the oil-gel phase in presence of POE excipients (Experiment 3); format: physicochemical
Protocol: as §1
The rate of adsorption of a drug of compound A on the oil phase was measured by the same method as in Example 2.

[7] = Adsorption of various compounds on the oil-gel phase (Experiment 5); format: physicochemical; details: 0.8% mucin, 600 μg loading, 2 hours
Protocol: When Macrogol 6000 was added to the aqueous phase, it was brought to 3.5% (n=3,6). […] The compounds that were used were […], nicardipine hydrochloride, compound B, and compound C. […] Furthermore, the oil phase surface was washed with methanol and the drug adsorbed on the oil phase in the recovered solution was assayed with an ultraviolet-visible spectrophotometer for each compound.

With `CCCCCC/C=C/Cc1c(C)c(=O)c2ccccc2n1O` [compound A, 1-hydroxy-2-(2-trans-nonenyl)-3-methyl-4(1H)-quinolone] the “augmentation of the in vivo anti-H. pylori activity” value (H. pylori [1]; 0.2% Macrogol 6000 added vs 0.5% MC suspension alone) was 10 fold, the clearance (H. pylori [1]; 0.2% Macrogol 6000 in 0.5% MC suspension, dose of 0.1 mg/kg or higher) was no less than 80% and the “in vivo anti-H. pylori activity with Macrogol 6000 compared to without” value (H. pylori [1]; 0.2% of Macrogol 6000 added) was “augmentation of in vivo anti-H. pylori activity was seen”. The Clearance ratio (H. pylori [1]; PEG6000 0%, dose 0.1 mg/kg) was “(0/5)”, the Clearance rate (H. pylori [1]; PEG6000 0%, dose 0.1 mg/kg) was 0% and the Clearance ratio (H. pylori [1]; PEG6000 0%, dose 0.3 mg/kg) was “(1/5)”. The Clearance rate (H. pylori [1]; PEG6000 0%, dose 0.3 mg/kg) was 20%, the Clearance ratio (H. pylori [1]; PEG6000 0%, dose 1 mg/kg) was “(4/5)” and the Clearance rate (H. pylori [1]; PEG6000 0%, dose 1 mg/kg) was 80%. The Clearance rate (H. pylori [1]; PEG6000 0%, dose 1 mg/kg, listed as chemical compound A) was 80%, the Clearance ratio (H. pylori [1]; PEG6000 0%, dose 3 mg/kg) was “(4/5)” and the Clearance rate (H. pylori [1]; PEG6000 0%, dose 3 mg/kg) was 80%. The Clearance ratio (H. pylori [1]; PEG6000 0.2%, dose 0.1 mg/kg) was “(4/5)”, the Clearance rate (H. pylori [1]; PEG6000 0.2%, dose 0.1 mg/kg) was 80% and the Clearance ratio (H. pylori [1]; PEG6000 0.2%, dose 0.3 mg/kg) was “(4/4)”. The Clearance rate (H. pylori [1]; PEG6000 0.2%, dose 0.3 mg/kg) was 100%, the Clearance ratio (H. pylori [1]; PEG6000 0.2%, dose 1 mg/kg) was “(4/5)” and the Clearance rate (H. pylori [1]; PEG6000 0.2%, dose 1 mg/kg) was 80%. The Clearance ratio (H. pylori [1]; PEG6000 0.2%, dose 3 mg/kg) was “(4/4)”, the Clearance rate (H. pylori [1]; PEG6000 0.2%, dose 3 mg/kg) was 100% and the solubility ([2]; 0.8% mucin aq. solution (sample 3)) was 5.9 µg/mL (≈ 19.7 µM). It also gave a solubility ([2]; 0.8% mucin aq. solution +3.5% PEG6000 (sample 4)) of 6.9 µg/mL (≈ 23 µM), a solubility ([2]; 6.2% BSA aq. solution (sample 5)) of 18.0 µg/mL (≈ 60.1 µM) and a solubility ([2]; 6.2% BSA aq. solution +3.5% PEG6000 (sample 6)) of 26.9 µg/mL (≈ 89.8 µM). For the same molecule, the “increase in solubility when Macrogol 6000 was added” value ([2]; BSA solution, sample 6 vs 5) was 1.5 fold, the “increase in solubility when Macrogol 6000 was added” value ([2]; aqueous mucin solution, sample 4 vs 3) was 1.2 fold and the solubility ([2]; distilled water +3.5% PEG6000 (sample 2)) was 0.1 µg/mL (≈ 0.334 µM). The solubility ([2]; distilled water, no PEG6000 (sample 1)) was 0.1 µg/mL (≈ 0.334 µM), the solubility ([2]; linoleic acid (sample 7)) was 135.0 µg/mL (≈ 451 µM) and the solubility ([2]; linoleic acid +10% PEG6000 (sample 8)) was 110.0 µg/mL (≈ 367 µM). The “number of live bacteria in vivo” value (H. pylori [3]) was “reduction in the number of live bacteria in vivo”, the “minimum concentration at which an increase in bacteria is inhibited” value (H. pylori [4]) was 0.025 µg/mL and the “drug adsorbed at the surface of the oil phase, % of the drug that was added” value ([5]; compound A-mucin suspension with Macrogol 6000, average) was 93%. The “drug adsorbed at the surface of the oil phase, % of the charged amount” value ([5]; compound A-mucin suspension, no Macrogol 6000) was 47%, the “adsorption amount of chemical compound A” value ([5]; mucin (+), with 3.5% PEG6000) was 506 µg and the “adsorption amount of chemical compound A” value ([5]; mucin (+), with 3.5% PEG6000, listed as chemical compound A) was 506 ± 53 µg. For the same molecule, the “adsorption amount of chemical compound A” value ([5]; mucin (+), without PEG6000) was 259 µg, the “adsorption amount of chemical compound A” value ([5]; mucin (+), without PEG6000, listed as chemical compound A) was 259 ± 63 µg and the “adsorption amount of chemical compound A” value ([5]; mucin (−), with 3.5% PEG6000) was 173 ± 25 µg. For the same molecule, the “adsorption amount of chemical compound A” value ([5]; mucin (−), without PEG6000) was 249 ± 24 µg, the “increase in amount adsorbed on the oil phase when Macrogol 6000 was added” value ([5]; mucin suspension, with vs without Macrogol 6000) was 2.0 fold and the “Adsorption on the oil-gel phase, amount(%)” value (from here on “Adsorption … amount(%)”) ([6]; excipient HCO 60 (n 60, m 10)) was 33 ± 14%. The “Adsorption … amount(%)” value ([6]; excipient HCO 80 (n 80, m 13.3)) was 17 ± 10%, the “Adsorption … amount(%)” value ([6]; excipient HCO 100 (n 100, m 16.7)) was 37 ± 11% and the “Adsorption … amount(%)” value ([6]; excipient PEG400 (n 8, m 8)) was 42 ± 9%. For the same molecule, the “Adsorption … amount(%)” value ([6]; excipient PEG 4000 (n 72, m 72)) was 42 ± 4 %, the “Adsorption … amount(%)” value ([6]; excipient PEG 6000 (n 188, m 188)) was 72 ± 3 % and the “Adsorption … amount(%)” value ([6]; excipient PEG 20000 (n 455, m 455)) was 79 ± 0 %. The “Adsorption … amount(%)” value ([6]; excipient Pluronic F68 (n 160, m 80)) was 67 ± 3 %, the “Adsorption … amount(%)” value ([6]; excipient Pluronic L31 (n 3, m 1.5)) was 28 ± 5% and the “Adsorption … amount(%)” value ([6]; excipient Pluronic L44 (n 20, m 10)) was 25 ± 2%. The “Adsorption … amount(%)” value ([6]; excipient Pluronic L64 (n 27, m 13.5)) was 32 ± 5%, the “Adsorption … amount(%)” value ([6]; excipient Pluronic P85 (n 54, m 27)) was 40 ± 4 % and the “Adsorption … amount(%)” value ([6]; excipient Pluronic P103 (n 29, m 14.5)) was 22 ± 7%. The “Adsorption … amount(%)” value ([6]; without excipient) was 19 ± 7%.
For `Cc1cccc(NC(=O)N[C@@H]2N=C(c3ccccc3)c3ccccc3N(CC(=O)c3ccccc3C)C2=O)c1` [compound B, (R)-1-[2,3-dihydro-1-(2′-methylphenacyl)-2-oxo-5-phenyl-1H-1,4-benzodiazepin-3-yl]-3-(3-methylphenyl)urea], the “adsorption amount of chemical compound” value ([7]; with 3.5% PEG6000) was 411 ± 3 µg and the “adsorption amount of chemical compound” value ([7]; without PEG6000) was 269 ± 13 µg.
In the case of `Cc1nc2c([nH]1)-c1ccccc1N(C(=O)c1ccc(NC(=O)c3ccccc3-c3ccccc3)cc1)CC2.Cl` [compound C, 4′-[(2-methyl-1,4,5,6-tetrahydroimidazo[4,5-d][1]benzazepin-6-yl)carbonyl]-2-phenylbenzanilide hydrochloride], the “adsorption amount of chemical compound” value ([7]; with 3.5% PEG6000) is reported as 370 ± 12 µg and the “adsorption amount of chemical compound” value ([7]; without PEG6000) is reported as 335 ± 10 µg.
In the case of `COC(=O)C1=C(C)NC(C)=C(C(=O)OCCN(C)Cc2ccccc2)C1c1cccc([N+](=O)[O-])c1` (stereo not shown) [nicardipine, nicardipine hydrochloride, reference compound], the “adsorption amount of chemical compound” value ([7]; with 3.5% PEG6000) is reported as 96 ± 5 µg and the “adsorption amount of chemical compound” value ([7]; without PEG6000) is reported as 47 ± 6 µg.
